What was measured:
[1] = Radiochemical stability in human serum (iTLC); type: in vitro ADME
Experimental: A precursor amount of 50 nmol was labeled with Lutetium-177, achieving a radiochemical yield of over 99% and a molar activity of 25.5 GBq/μmol within 15 min at 95 °C. The radiochemical purity of ^177Lu-PSMA-617 (Rt = 7.47 min) exceeded 98%, as determined by radio-HPLC and iTLC analyses (Figure 1). To assess radiolytic stability, ^177Lu-PSMA-617 was incubated in human serum at 4, 25, and 37 °C for 1, 24, 48, and 72 h. […] However, after 72 h, less than 5% and 4% of free ^177Lu was detected at 4 °C and 25 °C, respectively. […] These findings are consistent with other studies. […] The ability to maintain radiolabeling over an extended period reinforces its viability for targeted radiopharmaceutical therapy and molecular imaging in oncology.
Radiolabeling was conducted as previously described. A total of 1 GBq of non-carrier added lutetium-177 (Isotopia Molecular Imaging, Petach Tikva, Israel) was mixed with 100 μL of a sodium acetate solution (0.4 M, pH 5.5), 1.25 μL of an ascorbic acid solution (20% w/w), and 5 μL of a PSMA-617 solution (10 mM, Ontores Biotechnology Co., Ltd., Hangzhou, China). The mixture solution was subjected to heating at a temperature of 95 °C while being placed on a shaker for 15 min. The labeling efficiency was measured using instant thin-layer chromatography (iTLC) on the glass microfiber chromatography paper impregnated with a silica gel (Agilent Technologies, Santa Clara, CA, USA), where 100 mM EDTA in 100 mM ammonium acetate acts as a mobile phase as described previously. The iTLC sheets were measured using a radioactive scanner (AR-2000 radio-TLC Imaging Scanner, Bioscan, Evreux, France). The labeling rate of >90% was acceptable as performed in the in vitro and in vivo studies. Radiochemical purity was also analyzed by high-performance liquid chromatography (HPLC) with a UV detector (220 nm) and a radio detector using a Zorbax SB-C18 column (Agilent Technologies, Santa Clara, CA, USA). The flow rate was 0.8 mL/min with the gradient mobile phase going from the 80% A buffer (0.1% TFA in water) and 20% B buffer (0.1% TFA in acetonitrile) to the 40% B buffer within 20 min. A sterile 0.9% sodium chloride solution was added before injections in mice. The radiochemical stability of ^177Lu-PSMA-617 in human serum up to 96 h at 4, 25, and 37 °C was tested by iTLC.

[2] = Absorbed radiation dose calculations (OLINDA/EXM), extrapolated from mouse data; design: species or system human; settings: 70 kg male adult
Experimental: Radiation doses (mGy/GBq) for major human organs (male) were calculated using the OLINDA/EXM Version 1.1 software. The organ-specific radiation absorbed doses following the administration of ^177Lu-PSMA-617 to humans were estimated based on residence times derived from mouse data and are presented in Table 1. […] The overall effective dose was 0.127 mSv/MBq. These findings provide critical insights into the dosimetry profile of ^177Lu-PSMA-617, aiding in the assessment of its safety and therapeutic potential.
The absorbed radiation dose calculations were performed as previously reported. For the estimation of mean absorbed doses in humans, the relative organ mass scaling method was used. The calculated mean value of the percentage injected activity per gram of tissue (%IA/g) for the organs in mice was extrapolated to the uptake amount in the organs of a 70 kg adult using the following formula:[(%IA/gorgan)animal × (kgTB weight)animal] × (gorgan/kgTB weight)human = (%IA/organ)human
The extrapolated values (%IA) in human organs at 1, 4, 24, and 48 h were fitted with exponential biokinetic models and integrated to obtain the number of disintegrations in the source organs; this information was entered into the OLINDA/EXM computer program. The integrals (MBq-s) for 11 organs, including heart contents (blood), the heart, the liver, the spleen, the lung, the kidney, muscle, the brain, bone, the small intestine, and the remainder of the body, were evaluated and used for the dosimetry evaluation.

PSMA-positive tumors = tested on: PSMA-positive tumors; design: method as in PMID 31399803; settings: single intravenous dose of 111 MBq; cited from earlier work
[3] = design: method as in PMID 25573634; settings: over 96 h; cited from earlier work

O=C([O-])CN1CCN(CC(=O)[O-])CCN(CC(=O)NCC2CCC(C(=O)N[C@@H](Cc3ccc4ccccc4c3)C(=O)NCCCC[C@H](NC(=O)N[C@@H](CCC(=O)O)C(=O)O)C(=O)O)CC2)CCN(CC(=O)[O-])CC1.[177Lu+3] (stereo partly shown) [^177Lu-PSMA-617]
free activity ([1]; human serum, 4 °C, after 2 h): 1.2%
free activity ([1]; human serum, 25 °C, after 2 h): less than 1.1%
free activity ([1]; human serum, after 48 h, at 4, 25 and 37 °C): no detectable free activity
free 177Lu ([1]; human serum, after 72 h, 4 °C): less than 5%
free 177Lu ([1]; human serum, after 72 h, 25 °C): < 4%
release of free activity ([1]; human serum, up to 72 h at 37 °C): without any release of free activity
free 177Lu ([1]; over a 72 h observation period, 37 °C): less than 5%
Estimated Dose ([2]; Adrenals): 8.15E−04 mSv/MBq
Estimated Dose ([2]; Brain): 3.54E−05 mSv/MBq
Estimated Dose ([2]; Breasts): 7.86E−03 mSv/MBq
Estimated Dose ([2]; Kidneys): 2.19E−04 mSv/MBq
Estimated Dose ([2]; LLI Wall): 2.01E−02 mSv/MBq
Estimated Dose ([2]; Liver): 5.81E−04 mSv/MBq
Estimated Dose ([2]; Lungs): 1.47E−03 mSv/MBq
Estimated Dose ([2]; Muscle): 6.33E−05 mSv/MBq
Estimated Dose ([2]; Osteogenic Cells): 4.98E−03 mSv/MBq
Estimated Dose ([2]; Pancreas): 8.27E−04 mSv/MBq
Estimated Dose ([2]; Red Marrow): 1.47E−02 mSv/MBq
Estimated Dose ([2]; Skin): 1.54E−03 mSv/MBq
Estimated Dose ([2]; Small Intestine): 8.52E−04 mSv/MBq
Estimated Dose ([2]; Spleen): 6.92E−05 mSv/MBq
Estimated Dose ([2]; Stomach Wall): 1.98E−02 mSv/MBq
Estimated Dose ([2]; Testes): 2.16E−02 mSv/MBq
Estimated Dose ([2]; Thymus): 8.01E−04 mSv/MBq
Estimated Dose ([2]; Thyroid): 8.08E−03 mSv/MBq
Estimated Dose ([2]; ULI Wall): 8.45E−04 mSv/MBq
Estimated Dose ([2]; Urinary Bladder Wall): 8.32E−03 mSv/MBq
Estimated Dose ([2]; Uterus): 8.48E−04 mSv/MBq
Effective Dose ([2]; overall effective dose): 1.27E−01 mSv/MBq
median survival (PSMA-positive tumors): 130 days
stability in human serum [3]: > 95%

From article PMC12250129, “Exploring the Therapeutic Potential of ^177Lu-PSMA-617 in a Mouse Model of Prostate Cancer Bone Metastases” (International Journal of Molecular Sciences, 2025)
